From paper PMC7247319, “The mitochondria-targeted peptide SS-31 binds lipid bilayers and modulates surface electrostatics as a key component of its mechanism of action” (The Journal of Biological Chemistry, 2020)
Where a SMILES comes first, the peptide text is derived from it. [ ]: non-standard residue; d: D form. Dmt = Cc1cc(O)cc(C)c1C[C@H](N)C(=O)O

Test system: LUVs containing 20% TOCL or POPG in POPC background
Assay: Fluorescent reporters of lipid dynamics and packing (DPH anisotropy, laurdan and prodan GP)
Method: Figure 4. Effects of SS-31 on structural properties of model membranes. […] LUVs composed of 20% anionic lipid (TOCL, MLCL, or POPG) in POPC background were measured in the absence or presence of peptide ([SS-31]/[lipid]^eff = 1:5) as indicated. A, synchrotron SAXS measurements showing background-subtracted scattering density profiles for LUVs in the absence (black) or presence (red) of SS-31. B, ^31P solid-state NMR spectra of LUVs in the absence (bottom spectra) or presence (top spectra) of SS-31. C, SS-31 alters lipid packing interactions. Shown are changes in laurdan and prodan GP values (ΔGP) with increasing [SS-31] for LUVs containing 20% TOCL or POPG in POPC background as indicated. Data and fits in gray show SS-31 fractional saturation (calculated from Fig. 2A, [lipid]^eff = 25 μM). […]
We therefore addressed whether SS-31 altered lipid interactions within these model bilayers. […] Using 1,6-diphenyl-1,3,5-hexatriene (DPH) anisotropy (〈r〉^DPH) as a readout of the fluid dynamics of hydrocarbon tails, we observed no effect of SS-31 in TOCL- or POPG-containing membranes (Fig. S10, D and E). […]
Steady-state fluorescence measurements were performed with a Fluorolog 3-22 spectrofluorometer (HORIBA Jobin-Yvon) equipped with photon-counting electronics, double-grating excitation and emission monochromators, automated Glan–Thompson polarizers, and a 450-watt xenon lamp. […]

In the case of Cc1cc(O)cc(C)c1C[C@H](NC(=O)[C@H](N)CCCNC(=N)N)C(=O)N[C@@H](CCCCN)C(=O)N[C@@H](Cc1ccccc1)C(N)=O [SS-31, D-Arg-2′6′-dimethyl-Tyr-Lys-Phe-NH2] (H-[dR][Dmt]KF-NH2), the “effect on DPH anisotropy (fluid dynamics of hydrocarbon tails)” value (TOCL- or POPG-containing membranes) was “no effect” and the “effect on laurdan and prodan generalized polarization (GP^LAU, GP^PRO)” value (increasing [SS-31], 20% TOCL or POPG LUVs, n = 3) was “modest, yet repeatable and saturable, increases”.
